Assay results taken from patent publication US20100081637A1, “Eczema treatment with vitamin D and analogs thereof method, composition and cream” (Innovia Skincare Corp., priority 2008, published 2010).

Experiments:
[1] = test system: lesions from atopic dermatitis; details: five patients; calcipotriol 50 ug/g and maxacalitriol 25 ug/g, ointment; cited from earlier work
phosphate transport = details: cited from earlier work; for influence of presence or absence of luminal Ca on phosphate transport: vascular perfusion, 65 pM 1,25-dihydroxyvitamin D3 or 6.5 nM 24,25-dihydroxyvitamin D3
atopic dermatitis = assay: Topical vitamin D cream in eczema / atopic dermatitis patients, case reports (Examples 1-6); details: for effect of prior treatment on itch / effect of prior treatment on redness: prior treatments of the Example 3 patient, per parent
Excerpt: Person, diagnosed with atopic dermatitis. […] Prior treatments consisted of:
We apply the cream after bathing, before bedtime, and during the night, when needed for itching. […]
Adult […]. […] A vitamin D (400 IU/g) cream was applied. […]

phosphate metabolism = details: Cross and Peterlik 1981; cited from earlier work
pruritus = assay: Dose response of pruritus scores against vitamin D concentration (the FIGURE); assay type: in vivo, human; details: topical application; read from the dose response graph
Excerpt: The FIGURE is a graph illustrating the dose response experimental data in terms of pruritus scores on the vertical scale and a vitamin D concentration in international units per gram (IU/g) on the horizontal scale, with up to four different timing parameters represented by adjacent differentiated bars for each concentration. Pruritus relief is the fastest observed benefit after topical application of our claimed formulations. The graph below indicates an effective concentration as low as 50 IU/g. This is also an indication of bioavailability of vitamin D and therefore an indication of the lowest effective concentration for the treatment of additional symptoms of eczema.

## C=C1/C(=C\C=C2/CCC[C@]3(C)[C@@H]([C@H](C)OCCC(C)(C)O)CC[C@@H]23)C[C@@H](O)C[C@@H]1O [maxacalitriol]
[1]
  effect on lesions from atopic dermatitis: improvement of lesions

## C=C1CCC(O)C/C1=C\C=C1\CCCC2(C)C1CCC2C(C)CCC(O)C(C)(C)O (stereo not drawn) [24,25-dihydroxyvitamin D3]
Phosphate transport
  influence of presence or absence of luminal Ca on phosphate transport: did not influence

## CC1(C)O[C@@H]2C[C@H]3[C@@H]4CCC5=CC(=O)C=C[C@]5(C)[C@H]4[C@@H](O)C[C@]3(C)[C@]2(C(=O)CO)O1 [Desonide 0.5%, Desonide]
Atopic dermatitis
  effect of prior treatment on itch: gives itch relief
  effect of prior treatment on redness: reduces redness

## C=C1CC[C@H](O)C/C1=C/C=C1\CCC[C@]2(C)[C@@H]([C@H](C)CCCC(C)C)CC[C@@H]12 [vitamin D, cholecalciferol]
Phosphate metabolism
  activity with respect to phosphate metabolism: active
pruritus
  lowest effective concentration for pruritus relief: 50 IU/g

## C=C1/C(=C\C=C2/CCC[C@]3(C)[C@@H]([C@H](C)/C=C/[C@@H](O)C4CC4)CC[C@@H]23)C[C@@H](O)C[C@@H]1O [calcipotriol]
[1]
  effect on lesions from atopic dermatitis: improvement of lesions

## CC(=O)OCC(=O)[C@@]12OC(C)(C)O[C@@H]1C[C@H]1[C@@H]3C[C@H](F)C4=CC(=O)C=C[C@]4(C)[C@@]3(F)[C@@H](O)C[C@@]12C [Fluocinonide 0.05%, Fluocinonide]
Atopic dermatitis; prior treatment of the Example 5 patient, self-reported
  effectiveness of prior treatment: fairly effective

## C=C1CC[C@H](O)C/C1=C/C=C1\CCC[C@]2(C)[C@@H]([C@H](C)CCCC(C)(C)O)CC[C@@H]12 [25-hydroxyvitamin D3]
Phosphate transport; subnormal concentration (20 nM)
  stimulation of phosphate transport relative to the normal concentration (100 nM): much higher rates
Phosphate transport; vascular perfusion with 100 nM 25-hydroxyvitamin D3
  phosphate transport, luminal Ca present: stimulated

## Cl.OCCOCCN1CCN(C(c2ccccc2)c2ccc(Cl)cc2)CC1 (stereo not drawn) [Hydroxyz Hcl 10 mg]
Atopic dermatitis; human, in vivo
  sleepiness under prior treatment: made their sleepy
Atopic dermatitis
  effect of prior treatment on itch: did not help

## CCCCC(=O)O[C@]1(C(=O)CO)CC[C@H]2[C@@H]3CCC4=CC(=O)CC[C@]4(C)[C@H]3[C@@H](O)C[C@@]21C [Hydrocort Val 02%]
Atopic dermatitis
  effect of prior treatment on itch: did not help
  effect of prior treatment on redness: did not help

## C=C1/C(=C\C=C2/CCC[C@]3(C)[C@@H]([C@H](C)CCCC(C)(C)O)CC[C@@H]23)C[C@@H](O)C[C@@H]1O [1,25-dihydroxyvitamin D3]
Phosphate transport
  influence of presence or absence of luminal Ca on phosphate transport: did not influence
